What was measured:
[1] = tested on: JAK2-dependent phosphorylation of STAT3 (phospho-Y705) in AGS gastric cancer cell line; test: Western blot of STAT3 phosphorylation in AGS cells; format: cell-based; settings: 24 hours, 5-10 uM, densitometry
Procedure: (§1) In order to detect specific inhibition of JAK2 enzyme in cell culture, Western blot assays may also be performed. For this, cells which have been treated with a potential JAK2 inhibitor are lysed with a buffer specific for the isolation and preservation of proteins (1% Nonidet P-40, 120 mM NaCl, 30 mM Tris pH 7.4, 1:100 Protease Inhibitor Cocktail III [Calbiochem/EMD Biosciences], 1:100 Phosphatase Inhibitor Cocktail 1 [Sigma-Aldrich, Saint Louis, Mo.], 1:100 Phosphatase Inhibitor Cocktail 2 [Sigma-Aldrich, Saint Louis, Mo.]). The protein concentration in these lysates is then quantified using the BCA Protein Assay Kit (Pierce). Known amounts of protein, e.g. 50 ug, are loaded onto 10% SDS-polyacrylamide gels and are subjected to reducing, denaturing SDS-PAGE. […]
(§2) In this example, Compound 1-4 is shown to reduce the JAK2-dependent phosphorylation of STAT3 and STAT5 in the AGS gastric cancer cell line. […] Following incubation, cells were lysed and total protein isolated and quantified. […] Densitometry analysis was performed in order to quantify the amount of STAT3 and STAT5 phosphorylation in these treated cells. Phospho-STAT3 and phospho-STAT5 were compared to total STAT3 and STAT5 and the proportion of STAT phosphorylation relative to untreated controls was determined.

[2] = tested on: JAK2-dependent phosphorylation of STAT5 (phospho-Y694) in AGS gastric cancer cell line; test: Western blot of STAT5 phosphorylation in AGS cells; format: cell-based; settings: 24 hours, 5-10 uM, densitometry
Procedure: as §1, §2

CN1CCN(c2ccc(Nc3nccc(Nc4ccc(F)c(Cl)c4)n3)cc2)CC1 [Compound 1-4, N4-(3-chloro-4-fluorophenyl)-N2-(4-(4-methylpiperazin-1-yl)phenyl)pyrimidine-2,4-diamine]
STAT3 phosphorylation relative to untreated controls [1]: reduce | STAT5 phosphorylation relative to untreated controls [2]: reduce
